Structures are written as SMILES. A value given as a limit tells only on which side of the number the result lay.

One assay deals with T1, LCK (Homo sapiens, UniProt P06239).
T1 construct: LCK KD GST (225-509); GST
T1 sequence (P06239 225-509): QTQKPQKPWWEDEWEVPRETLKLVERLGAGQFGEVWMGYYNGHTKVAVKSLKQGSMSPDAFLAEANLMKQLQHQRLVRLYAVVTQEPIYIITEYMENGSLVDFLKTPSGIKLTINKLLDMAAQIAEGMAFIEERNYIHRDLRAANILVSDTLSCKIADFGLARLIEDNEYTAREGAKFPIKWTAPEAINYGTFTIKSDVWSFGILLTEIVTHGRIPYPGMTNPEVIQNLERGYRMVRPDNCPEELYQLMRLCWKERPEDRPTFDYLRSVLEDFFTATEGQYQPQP
In words: LCK-Homogeneous Time Resolved Fluorescent (HTRF) Kinase Assay. It counts as biochemical.
Settings: not given
The procedure: LCK-Homogeneous Time Resolved Fluorescent (HTRF) Kinase Assay:
The LCK HTRF assay begins with LCK in the presence of ATP phosphorylating the biotinylated peptide Gastrin. The reaction incubates for 90 min. To quench the assay detection reagents are added which both stop the reaction by diluting out the enzyme and chelating the metals due to the presence of EDTA. Once the detection reagents are added the assay incubates for 30 min to allow for equilibration of the detection reagents.
Buffer conditions are as follows: 50 mM HEPES pH 7.5, 50 mM NaCl, 20 mM MgCl, 5 mM MnCl, 2 mM DTT, 0.05% BSA.
The assay is quenched and stopped with 160 μL of detection reagent. Detection reagents are as follows: Buffer made of 50 mM Tris, pH 7.5, 100 mM NaCl, 3 mM EDTA, 0.05% BSA, 0.1% Tween20.
The assay plate is read in either a Discovery or a RubyStar.
Take `COc1cc(Nc2ncc3c(=O)n(-c4c(C)cccc4C)c4nc5ccccc5n4c3n2)cc(OC)c1OCCCN1CCN(C)CC1` [No. 9, 2-((3,5-bis(methyloxy)-4-((3-(4-methyl-1-piperazinyl)propyl)oxy)phenyl)amino)-6-(2,6-dimethylphenyl)pyrimido[5′,4′:5,6]pyrimido[1,2-a]-benzimidazol-5(6H)-one]: the IC50 was less than 1000 nM.

Take `COc1cc(Nc2ncc3c(=O)n(-c4c(C)cccc4C)c4nc5ccccc5n4c3n2)ccc1OCCN1CCN(C)CC1` [No. 10, 6-(2,6-dimethylphenyl)-2-((3-(methyloxy)-4-((2-(4-methyl-1-piperazinyl)ethyl)oxy)phenyl)amino)-pyrimido[5′,4′:5,6]pyrimido[1,2-a]benzimidazol-5(6H)-one]: the IC50 was less than 1000 nM.

`COc1cc(Nc2ncc3c(=O)n(-c4c(C)cccc4C)c4nc5ccccc5n4c3n2)ccc1N1CCN(C)CC1` [No. 19, 6-(2,6-dimethylphenyl)-2-((3-(methyloxy)-4-(4-methyl-1-piperazinyl)phenyl)amino)-pyrimido[5′,4′:5,6]pyrimido[1,2-a]benzimidazol-5(6H)-one] returned an IC50 of less than 1000 nM.

The compound `COc1cc(Nc2ncc3c(=O)n(-c4c(C)cccc4C)c4nc5ccccc5n4c3n2)ccc1OCCCN1CCN(C)CC1` [No. 20, 6-(2,6-dimethylphenyl)-2-((3-(methyloxy)-4-((3-(4-methyl-1-piperazinyl)propyl)oxy)phenyl)amino)-pyrimido[5′,4′:5,6]pyrimido[1,2-a]benzimidazol-5(6H)-one] gave an IC50 of less than 1000 nM.

The assay is the same for the next values; noted with them: read-out: activity in the LCK-HTRF Kinase Assay.
Regarding `Cc1cccc(C)c1-n1c(=O)c2cnc(Nc3ccc(N4CCNCC4)cc3)nc2n2c3ccccc3nc12` [No. 2, 6-(2,6-dimethylphenyl)-2-((4-(1-piperazinyl)phenyl)-amino)pyrimido[5′,4′:5,6]pyrimido[1,2-a]-benzimidazol-5(6H)-one], the IC50 was less than 1000 nM.

In the case of `Cc1cccc(C)c1-n1c(=O)c2cnc(Nc3ccc(N4CCN(C(=O)OC(C)(C)C)CC4)cc3)nc2n2c3ccccc3nc12` [No. 3, 1,1-dimethylethyl 4-(4-((6-(2,6-dimethylphenyl)-5-oxo-5,6-dihydropyrimido[5′,4′:5,6]pyrimido[1,2-a]-benzimidazol-2-yl)amino)phenyl)-1-piperazinecarboxylate], the IC50 is less than 1000 nM.

For the compound `COc1cc(Nc2ncc3c(=O)n(-c4c(C)cccc4C)c4nc5ccccc5n4c3n2)ccc1OCCC1CCN(C)CC1` [No. 4, 6-(2,6-dimethylphenyl)-2-((3-(methyloxy)-4-((2-(1-methyl-4-piperidinyl)ethyl)oxy)phenyl)amino)-pyrimido[5′,4′:5,6]pyrimido[1,2-a]benzimidazol-5(6H)-one], the IC50 is less than 1000 nM.

On to `Cc1cccc(C)c1-n1c(=O)c2cnc(Nc3ccc(OCCCN4CCCCC4)c(F)c3)nc2n2c3ccccc3nc12` [No. 5, 6-(2,6-dimethylphenyl)-2-((3-fluoro-4-((3-(1-piperidinyl)propyl)oxy)phenyl)amino)-pyrimido[5′,4′:5,6]pyrimido[1,2-a]benzimidazol-5(6H)-one], for which the IC50 was less than 1000 nM.

For the compound `CCN(CC)CCCOc1ccc(Nc2ncc3c(=O)n(-c4c(C)cccc4C)c4nc5ccccc5n4c3n2)cc1F` [No. 6, 2-((4-((3-(diethylamino)propyl)oxy)-3-fluorophenyl)-amino)-6-(2,6-dimethylphenyl)pyrimido[5′,4′:5,6]-pyrimido[1,2-a]benzimidazol-5(6H)-one], the IC50 is less than 1000 nM.

As to `Cc1cccc(C)c1-n1c(=O)c2cnc(Nc3ccc(OCCCN4CCN(C)CC4)c(F)c3)nc2n2c3ccccc3nc12` [No. 7, 6-(2,6-dimethylphenyl)-2-((3-fluoro-4-((3-(4-methyl-1-piperazinyl)propyl)oxy)phenyl)amino)-pyrimido[5′,4′:5,6]pyrimido[1,2-a]benzimidazol-5(6H)-one], the IC50 is less than 1000 nM.

For the compound `Cc1cccc(C)c1-n1c(=O)c2cnc(Nc3ccc(OCCN(C)C)cc3)nc2n2c3ccccc3nc12` [No. 8, 2-((4-((2-(dimethylamino)ethyl)oxy)phenyl)amino)-6-(2,6-dimethylphenyl)pyrimido[5′,4′:5,6]pyrimido[1,2-a]benzimidazol-5(6H)-one], the IC50 is less than 1000 nM.

As to `COc1cc(Nc2ncc3c(=O)n(-c4c(C)cccc4C)c4nc5ccccc5n4c3n2)cc(OCCN2CCN(C)CC2)c1OC` [No. 11, 2-((3,4-bis(methyloxy)-5-((2-(4-methyl-1-piperazinyl)ethyl)oxy)phenyl)amino)-6-(2,6-dimethylphenyl)pyrimido[5′,4′:5,6]pyrimido[1,2-a]-benzimidazol-5(6H)-one], the IC50 is less than 1000 nM.

Take `COc1cc(Nc2ncc3c(=O)n(-c4c(C)cccc4C)c4nc5ccccc5n4c3n2)ccc1OCC1CCN(C)CC1` [No. 12, 6-(2,6-dimethylphenyl)-2-((3-(methyloxy)-4-(((1-methyl-4-piperidinyl)methyl)oxy)phenyl)amino)-pyrimido[5′,4′:5,6]pyrimido[1,2-a]benzimidazol-5(6H)-one]: the IC50 is less than 1000 nM.

Regarding `Cc1cc(N2CCN(C)CC2)ccc1Nc1ncc2c(=O)n(-c3c(C)cccc3C)c3nc4ccccc4n3c2n1` [No. 13, 6-(2,6-dimethylphenyl)-2-((2-methyl-4-(4-methyl-1-piperazinyl)phenyl)amino)pyrimido[5′,4′:5,6]-pyrimido[1,2-a]benzimidazol-5(6H)-one], the IC50 was less than 1000 nM.

Consider `Cc1cccc(C)c1-n1c(=O)c2cnc(Nc3ccc(OC[C@@H]4CCCN4)cc3)nc2n2c3ccccc3nc12` [No. 14, 6-(2,6-dimethylphenyl)-2-((4-(((2S)-2-pyrrolidinylmethyl)oxy)phenyl)amino)-pyrimido[5′,4′:5,6]pyrimido[1,2-a]benzimidazol-5(6H)-one], for which the IC50 is less than 1000 nM.

Consider `Cc1cc(OCCCN2CCCCC2)ccc1Nc1ncc2c(=O)n(-c3c(C)cccc3C)c3nc4ccccc4n3c2n1` [No. 15, 6-(2,6-dimethylphenyl)-2-((2-methyl-4-((3-(1-piperidinyl)propyl)oxy)phenyl)amino)-pyrimido[5′,4′:5,6]pyrimido[1,2-a]benzimidazol-5(6H)-one], for which the IC50 is less than 1000 nM.

In the case of `Cc1cc(OCCCN2CCN(C)CC2)ccc1Nc1ncc2c(=O)n(-c3c(C)cccc3C)c3nc4ccccc4n3c2n1` [No. 16, 6-(2,6-dimethylphenyl)-2-((2-methyl-4-((3-(4-methyl-1-piperazinyl)propyl)oxy)phenyl)amino)-pyrimido[5′,4′:5,6]pyrimido[1,2-a]benzimidazol-5(6H)-one], the IC50 was less than 1000 nM.

`COc1cc(Nc2ncc3c(=O)n(-c4c(C)cccc4C)c4nc5ccccc5n4c3n2)cc(OC)c1OC` [No. 18, 6-(2,6-dimethylphenyl)-2-((3,4,5-tris(methyloxy)-phenyl)amino)pyrimido[5′,4′:5,6]pyrimido[1,2-a]-benzimidazol-5(6H)-one]: the IC50 was less than 1000 nM.

Take `COc1cc(Nc2ncc3c(=O)n(-c4c(C)cccc4C)c4nc5ccccc5n4c3n2)cc(OCCCN2CCN(C)CC2)c1OC` [No. 21, 2-((3,4-bis(methyloxy)-5-((3-(4-methyl-1-piperazinyl)propyl)oxy)phenyl)amino)-6-(2,6-dimethylphenyl)pyrimido[5′,4′:5,6]pyrimido[1,2-a]-benzimidazol-5(6H)-one]: the IC50 was less than 1000 nM.

With `COc1cc(Nc2ncc3c(=O)n(-c4c(C)cccc4C)c4nc5ccccc5n4c3n2)cc(OC)c1OCCN1CCN(C)CC1` [No. 22, 2-((3,5-bis(methyloxy)-4-((2-(4-methyl-1-piperazinyl)ethyl)oxy)phenyl)amino)-6-(2,6-dimethylphenyl)pyrimido[5′,4′:5,6]pyrimido[1,2-a]-benzimidazol-5(6H)-one], the IC50 was less than 1000 nM.

Consider `Cc1cccc(C)c1-n1c(=O)c2cnc(Nc3ccc(OC[C@H]4CCCN4)cc3)nc2n2c3ccccc3nc12` [No. 23, 6-(2,6-dimethylphenyl)-2-((4-(((2R)-2-pyrrolidinylmethyl)oxy)phenyl)amino)-pyrimido[5′,4′:5,6]pyrimido[1,2-a]benzimidazol-5(6H)-one], for which the IC50 was less than 1000 nM.

For `Cc1cccc(C)c1-n1c(=O)c2cnc(Nc3ccc(OCCC4CCN(C)CC4)cc3)nc2n2c3ccccc3nc12` [No. 24, 6-(2,6-dimethylphenyl)-2-((4-((2-(1-methyl-4-piperidinyl)ethyl)oxy)phenyl)amino)-pyrimido[5′,4′:5,6]pyrimido[1,2-a]benzimidazol-5(6H)-one], the IC50 is less than 1000 nM.

As to `COc1cc(Nc2ncc3c(=O)n(-c4c(C)cccc4C)c4nc5ccccc5n4c3n2)cc(OC)c1OCCN1CCCCC1` [No. 25, 2-((3,5-bis(methyloxy)-4-((2-(1-piperidinyl)ethyl)-oxy)phenyl)amino)-6-(2,6-dimethylphenyl)-pyrimido[5′,4′:5,6]pyrimido[1,2-a]benzimidazol-5(6H)-one], the IC50 was less than 1000 nM.

For the compound `Cc1cccc(C)c1-n1c(=O)c2cnc(Nc3ccc(N4CCN(C)CC4)c(F)c3)nc2n2c3ccccc3nc12` [No. 26, 6-(2,6-dimethylphenyl)-2-((3-fluoro-4-(4-methyl-1-piperazinyl)phenyl)amino)pyrimido[5′,4′:5,6]-pyrimido[1,2-a]benzimidazol-5(6H)-one], the IC50 is less than 1000 nM.

Take `Cc1cccc(C)c1-n1c(=O)c2cnc(Nc3ccc(OCCN4CCCCC4)cc3)nc2n2c3ccccc3nc12` [No. 27, 6-(2,6-dimethylphenyl)-2-((4-((2-(1-piperidinyl)-ethyl)oxy)phenyl)amino)pyrimido[5′,4′:5,6]-pyrimido[1,2-a]benzimidazol-5(6H)-one]: the IC50 was less than 1000 nM.

For the origin of these results see patent US20050070554A1, “Substituted heterocyclic compounds and methods of use” (Amgen Inc., priority 2003, published 2005).
